From patent US20120128770A1, “TREATMENT OF INSULIN RESISTANCE AND OBESITY BY STIMULATING GLP-1 RELEASE” (Kobenhavns Universitet, priority 2009, published 2012)

Key:
human GPR119 receptor [1] = molecular target: T1, human GPR119 receptor (Homo sapiens, UniProt Q8TDV5); assay: Ligand-induced GPR119 activation, cAMP formation (HTRF) in CHO-K1 cells; type: cell-based; parameters: expressed in transfected cells; conditions: for cAMP formation / GPR119 activation in words: CHO-K1 cells transiently expressing GPR119, FIG. 1; for EC50: CHO-K1 cells, cAMP formation
T1 sequence (Q8TDV5 1-335): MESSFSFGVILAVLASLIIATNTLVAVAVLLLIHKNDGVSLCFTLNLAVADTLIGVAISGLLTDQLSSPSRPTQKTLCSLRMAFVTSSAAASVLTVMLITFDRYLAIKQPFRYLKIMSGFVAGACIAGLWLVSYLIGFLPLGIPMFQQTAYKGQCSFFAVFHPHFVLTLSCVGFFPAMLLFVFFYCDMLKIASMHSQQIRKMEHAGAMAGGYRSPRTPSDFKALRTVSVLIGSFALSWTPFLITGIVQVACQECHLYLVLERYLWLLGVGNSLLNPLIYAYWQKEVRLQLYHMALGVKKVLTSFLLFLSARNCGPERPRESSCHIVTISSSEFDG
Method: FIG. 1. Ligand-induced GPR119 activation in CHO-K1 cells. Five different ligands were tested. Oleoylethanolamide, H-1: 2-oleoylglycerol, H-2: 1-oleoyleglycerol, H-4: oleic acid, and H-5: 2-palmitoylglycerol. cAMP was measured by a HTRF kit from CisBio International. Three experiments (each in duplicate) were performed using oleoylethanolamide as positive control in each experiment. All dose-response curves were normalized to the efficacy of OEA in each experiment, and the data are shown as ligand-induced activation above basal receptor activity.
GPR119 receptor signalling experiments were carried out using CHO-K1 cells transiently transfected with the human GPR119 receptor. CHO-K1 cells expressing GPR119 grown to mid-log phase prior to the test in culture media without antibiotics and supplemented with doxycycine (final concentration 200 ng/ml) were detached be gentle flushing with PBS-EDTA (5 mM EDTA), recovered by centrifugation and resuspended in Ham's F12 culture medium containing 10% FCS and no antibiotic. Cells were counted, centrifuged in a 50 ml Falcon tube and resuspended in KRH-IBMX (5 mM KCL, 1.25 mM MgSO4, 124 mM NaCl, 25 mM HEPES, 13.3 mM glucose, 1.25 mM KH2PO4, 1.45 mM CaCl2, 0.6 mg/ml BSA and […] Phenol red, pH 7.4) at a concentration of 6.25×10^5 cells/ml. Cells were then filled in 96 well plates (total vol 24 μl/well) and stimulated with agonists in serial dilution for 30 min. cAMP was then measured using a HTRF kit from CisBio International (cat no. 62AM2PEB). Determinations were made in duplicate.

tGLP-1 release = assay: Clinical experiment: duodenal bolus in healthy male volunteers, plasma tGLP-1 release; type: in vivo, human; conditions: for plasma tGLP-1 levels during the first 25 minutes: duodenal bolus, compared to vehicle
Method: FIG. 4. Stimulation of tGLP-1 release by 2OG in the intestinal lumen. Eight healthy male volunteers were given enteral feeding by duodenal tube. Each volunteer was given three different liquid meals (two grams of 2OG(▴), 1.54 grams of oleic (∘) acid or vehicle (⋄)) on three different days. The vehicle consisted of 50 ml glycerol plus 5 ml ethanol. Data are mean values±SEM and were analysed by repeated measurements ANOVA.
8 healthy male volunteers (20-30 years, BMI 20-25) that had fasted 10 hours, were given enteral feeding by duodenal tube. The liquid meals were prepared 5 min before use. Each volunteer was given three different liquid meals (clear solution, bolus 55 ml) on three different days (A-C).
Day A: 2OG (2 g) in 50 ml glycerol+5 ml ethanol Day B: oleic acid (1.54 g) in 50 ml glycerol+5 ml ethanol Day C: 50 ml glycerol+5 ml ethanol Blood Samples were collected at the following points (min): −15, −10, 0, 10, 20, 30, 40, 50, 60, 75, 90, 120, 150, 180, 240.
In serum was measured: insulin and C-peptide
In plasma was measured: glucose, tGLP-1, Cholecystokinin (CCK).
The methods for these assays have been described previously (ref 18).

human GPR119 receptor [2] = molecular target: T1, human GPR119 receptor; assay: Ligand-induced GPR119 activation, cAMP accumulation (3H-adenine) in transiently transfected COS-7 cells; type: cell-based; parameters: expressed in transfected cells; host or cells: COS-7
Method: Three different ligands were tested: (C) oleoylethanolamide (OEA), (A) 2-oleoylglycerol (2OG), and (D) oleic acid, by measurement of cAMP accumulation. Briefly, COS-7 cells were transiently transfected with the human GPR119 receptor (squares) or empty vector (negative control, triangle). The cells were seeded in plates one day after transfection, incubated for 24 hours with 2 μCi/ml of ^3H-adenine. At the day of the cAMP measurement, the cells incubated with the ligands for 25 minutes, lysed, and the cAMP purified using Dowex and alumina columns. The data represent sum-curves of three independent experiments (n=3), performed in duplicates. All dose-response curves were normalized to the efficacy of OEA in each experiment, and the data are shown as ligand-induced activation above basal receptor activity.
Briefly, COS-7 cells were transiently transfected with human GPR119 receptor (squares) or empty vector (negative control, triangle). The cells were seeded in plates one day after transfection, incubated for 24 hours with 2 μCi/ml of ^3H-adenine. At the day of the cAMP measurement, the cells were incubated with the ligand for 25 minutes, lysed, and the cAMP purified using Dowex and alumina columns. The data represent sum-curves of the 7 independent experiments, performed in duplicates.
GPR119 receptor signalling experiments were carried out using COS-7 cells transiently transfected with the human GPR119 receptor. The COS-7 cells were grown at 10% CO2 and 37° C. in Dulbecco's modified Eagle's medium with glutamax (Gibco, Cat. No 21885-025) adjusted with 10% fetal bovine serum (FBS), 180 u/ml penicillin and 45 ug/mL streptomycin (PenStrep). Transfection of the COS-7 cells was performed by the calcium phosphate precipitation method. The cells were seeded in 24 well plates (1.5×10^5 cells/well) one day after transfection, and were subsequently incubated for 24 hours with 2 μCi/ml of 3H-adenine in 0.5 ml growth medium per well. At the day of the cAMP measurement, the cells were washed twice in HBS buffer (25 mM Hepes, pH 7.2, supplemented with 0.75 mM NaH2PO4, 140 mM NaCl and 0.05% (w/v) bovine serum albumin), and 0.5 ml HBS buffer supplemented with 1 mM of the phosphodiesterase inhibitor IBMX (3-isobutyl-1-methylxanthine, Sigma chemicals Co., St. Louis, Mo., USA) was added together with increasing concentrations of the different compounds (2OG, 1OG, OEA, oleic acid or 2-PG). After 25 min incubation at 37° C., the cells were placed on ice, the medium was removed, and the cells were lysed in 1 ml of 5% (w/v) trichloroacetic acid, supplemented with 0.1 mM cAMP and 0.1 mM ATP for 30 min. The lysate mixtures were loaded onto Dowex columns (Bio-Rad, Hercules, Calif., USA), which were washed with 2 ml of water and placed onto the top of alumina columns (Sigma) and washed again with 10 ml of water. The alumina columns were eluted with 6 ml of 0.1 M imidazole into 15 ml scintillation fluid (Highsafe III). Columns were re-used up to 15 times. Dowex columns were regenerated by adding 10 ml of 2 N HCl followed by 10 ml of water; the alumina columns were regenerated by adding 2 ml of 1 M imidazole, 10 ml of 0.1 M imidazole, and finally 5 ml of water. Determinations were made in duplicate.

[3] = experiment 1, read-out: EC-values for activation of GPR119, CHO-exp-1
[4] = experiment 2, read-out: EC-values for activation of GPR119, CHO-exp-2
[5] = COS-7 cells, cAMP formation, n = 3, read-out: EC-values for activation of GPR119, COS-cells (n = 3)
[6] = transiently transfected COS-7 cells, Table 2, read-out: EC50 for activation of GPR119
[7] = experiment 3, read-out: EC-values for activation of GPR119, CHO-exp-3

CCCCCCCC/C=C\CCCCCCCC(=O)OC(CO)CO [2-Oleoylglycerol, 2-oleoylglycerol]
cAMP formation / GPR119 activation in words (human GPR119 receptor [1]): increase cAMP formation | EC50 (human GPR119 receptor [1]; [3]): 1550 nM | EC50 (human GPR119 receptor [1]; [4]): 1120 nM | plasma cholecystokinin levels (tGLP-1 release; comparison between groups, data not shown): no difference | plasma tGLP-1 levels during the first 25 minutes (tGLP-1 release; fasted volunteers): significant increased levels of tGLP-1 | incremental area under the curve (iAUC) of tGLP-1 for the first 25 min (tGLP-1 release; healthy male volunteers, duodenal tube, 2 g 2OG or 1.54 g oleic acid in 50 ml glycerol + 5 ml ethanol, mean±SEM): 0.07±0.02 nM×25 min | plasma levels of glucose (tGLP-1 release; increase after 25 min in all three groups, comparison between groups, data not shown): no difference between groups | insulin or c-peptide levels (tGLP-1 release; serum, fasted volunteers, data not shown): no effect | EC50 (human GPR119 receptor [2]; [5]): 2800 nM | GPR119 agonism (efficacy normalized to OEA) (human GPR119 receptor [2]; cAMP formation, COS-7 cells (also CHO-K1)): full agonist | EC50 (human GPR119 receptor [2]; [6]): 4200 nM

CCCCCCCCCCCCCCCC(=O)OC(CO)CO [2-palmitolyglycerol (2PG), 2-palmitoylglycerol]
cAMP formation / GPR119 activation in words (human GPR119 receptor [1]): activator of GPR119 | EC50 (human GPR119 receptor [2]; [6]): > 30000 nM

CCCCCCCC/C=C\CCCCCCCCOC(CO)CO [2OG-ether]
EC50 (human GPR119 receptor [2]; [6]): 7900 nM

CCCCCCCC/C=C\CCCCCCCC(=O)NCCO [Oleoylethanolamide, oleoylethanolamide, reference compound]
EC50 (human GPR119 receptor [1]; [3]): 1430 nM | EC50 (human GPR119 receptor [1]; [4]): 4650 nM | EC50 (human GPR119 receptor [1]; [7]): 1670 nM | EC50 (human GPR119 receptor [2]; [5]): 1400 nM

CCCCCCCC/C=C\CCCCCCCC(=O)O [oleic acid, reference compound]
EC50 (human GPR119 receptor [1]; [7]): > 30000 nM | plasma tGLP-1 levels during the first 25 minutes (tGLP-1 release; fasted volunteers): did not increase plasma levels of GLP-1 | EC50 (human GPR119 receptor [2]; [5]): 32600 nM | EC50 (human GPR119 receptor [2]; [6]): > 30000 nM
